From PubChem BioAssay (NCI)
Where “and” joins values, the source holds several entries; their conditions need not be identical. Equal entries are not always repeated.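 Tested at 5 concentrations; 48 h exposure; 96-well plates; endpoints linearly interpolated, else capped at highest concentration. GI50 marks 50% less growth. Definition used: TGI = concentration required for complete inhibition of growth.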

Assays:
Test in all cases: NCI-60 cell line screen, 48 h
[1] = tested on: COLO 205 colon
[2] = tested on: U251 CNS
[3] = tested on: SF-539 CNS
[4] = tested on: SK-MEL-28 melanoma
[5] = tested on: OVCAR-5 ovarian
[6] = tested on: ACHN renal
[7] = tested on: A498 renal
[8] = tested on: EKVX NSCLC
[9] = tested on: HCT-15 colon
[10] = tested on: OVCAR-8 ovarian

COc1cc(NC(=O)c2cc(O)c(CC=C(C)C)c(O)c2)cc2c1O[C@]1(C)CC[C@@H](O)C(C)(C)[C@H]1C2
GI50 [1]: 2.24 µM
TGI [1]: 5.5 µM
GI50 [2]: 0.846 µM
TGI [2]: 14.8 µM
GI50 [3]: 0.659 µM
TGI [3]: 4.02 µM
GI50 [4]: 2.31 µM
TGI [4]: 16.8 µM
GI50 [5]: 12 µM
TGI [5]: 66.7 µM
GI50 [6]: 5.38 µM
TGI [6]: 48.7 µM
GI50 [7]: 1.21 µM
TGI [7]: 7.94 µM
GI50 [8]: 5.96 µM
TGI [8]: 48.2 µM
GI50 [9]: 4.09 µM
TGI [9]: 21.3 µM
GI50 [10]: 6.34 µM
TGI [10]: 33.7 µM

CCS(=O)(=O)c1ccc(OC)c(Nc2ncc(-c3cccc(OC)c3)o2)c1
GI50 [1]: 10.3 µM
TGI [1]: > 25 µM
GI50 [2]: 8.09 µM
TGI [2]: > 25 µM
GI50 [3]: 6.96 µM
TGI [3]: > 25 µM
GI50 [4]: > 20.6 µM
TGI [4]: > 25 µM
GI50 [5]: 9.03 µM
TGI [5]: > 25 µM
GI50 [6]: 6.61 µM
TGI [6]: > 25 µM
GI50 [7]: 0.728 µM
TGI [7]: 4.28 µM
GI50 [8]: 18.9 µM
TGI [8]: > 25 µM
GI50 [9]: 10.6 µM
TGI [9]: > 25 µM
GI50 [10]: 9.66 µM
TGI [10]: > 25 µM

CN/N=C(/CCN1CCCC1)CC(c1ccccc1)c1c(O)c2ccccc2oc1=O (configuration not stated)
TGI [1]: > 91.4 µM
TGI [2]: > 100 µM
TGI [3]: > 100 µM
TGI [4]: > 100 µM
TGI [5]: > 100 µM
TGI [6]: > 100 µM
TGI [7]: > 100 µM
TGI [8]: > 100 µM
TGI [9]: > 100 µM
TGI [10]: > 100 µM

COc1c2c(cc3nc4ccccc4nc13)CCC(C(C)(C)O)C2 (configuration not stated)
TGI [1]: > 100 µM
TGI [2]: > 100 µM
TGI [3]: > 100 µM
TGI [4]: > 100 µM
TGI [5]: > 100 µM
TGI [6]: > 100 µM
TGI [7]: > 100 µM
TGI [8]: > 100 µM
TGI [9]: > 100 µM
TGI [10]: > 100 µM

CN(C)CCCn1c2c(c3ccccc3c1=O)C(=O)c1ccccc1-2
GI50 [1]: 7.52 µM
TGI [1]: 24.8 µM
GI50 [2]: 1.47 µM
TGI [2]: 6.37 µM
GI50 [3]: 1.86 µM
TGI [3]: 9.14 µM
GI50 [4]: 3.97 µM
TGI [4]: 18.3 µM
GI50 [5]: 3.06 µM
TGI [5]: 14 µM
GI50 [6]: 0.507 µM
TGI [6]: 2.15 µM
GI50 [7]: 5.99 µM
TGI [7]: 22.1 µM
GI50 [8]: 11.3 µM
TGI [8]: 36.8 µM
GI50 [9]: 1.85 µM
TGI [9]: 12 µM
GI50 [10]: 0.336 µM
TGI [10]: 1.34 µM

c1ccc(C2=NNC3c4ccccc4-c4ccccc4N3C2)cc1 (configuration not stated)
TGI [1]: 37.3 µM
TGI [2]: > 100 µM
TGI [3]: 50.5 µM
TGI [4]: > 100 µM
TGI [5]: > 100 µM
TGI [6]: > 100 µM
TGI [7]: 98.5 µM
TGI [8]: > 100 µM
TGI [9]: > 100 µM
TGI [10]: > 100 µM

CCN(CC)c1sc(N(CC)CC)c2c1SSSSS2
GI50 [1]: 0.937 µM
GI50 [2]: 2.76 µM
TGI [2]: 13.2 µM
GI50 [3]: 0.995 µM
TGI [3]: 2.63 µM
GI50 [4]: 1.55 µM
TGI [4]: 3.92 µM
GI50 [5]: 1.52 µM
TGI [5]: 3.2 µM
GI50 [6]: 1.07 µM
TGI [6]: 3.28 µM
GI50 [7]: 2.03 µM
TGI [7]: 3.54 µM
GI50 [8]: 1.84 µM
TGI [8]: 5.54 µM
GI50 [9]: 1.24 µM
TGI [9]: > 34.2 µM
GI50 [10]: 2.18 µM
TGI [10]: 4.7 µM

CCC1(O)C(=O)OCc2c1cc1n(c2=O)Cc2cc3ccc(C=O)cc3nc2-1 (configuration not stated)
GI50 [1]: 5.77 µM
TGI [1]: 12.5 µM and 31.3 µM
GI50 [2]: 1.02 µM
TGI [2]: 50 µM and 8.82 µM
GI50 [3]: 1.69 µM
GI50 [4]: 11.2 µM
TGI [4]: 50 µM and > 100 µM
GI50 [5]: 10.5 µM
TGI [5]: 50 µM and 55.2 µM
GI50 [6]: 1.73 µM
TGI [6]: 38.9 µM and 5.51 µM
GI50 [7]: 5.39 µM
TGI [7]: 13.5 µM and 19.5 µM
GI50 [8]: 15.1 µM
TGI [8]: 50 µM and > 100 µM
TGI [9]: 40.2 µM and > 62.4 µM
GI50 [10]: 0.539 µM
TGI [10]: 8.02 µM and 24.2 µM

CCN(CC)CCN1CC(O)=C(c2nc(-c3ccc(Cl)cc3)cs2)C1=N
GI50 [1]: 2.04 µM
TGI [1]: 4 µM
GI50 [2]: 1.68 µM
TGI [2]: 3.17 µM
GI50 [3]: 1.55 µM
TGI [3]: 3.11 µM
GI50 [4]: 1.86 µM
TGI [4]: 3.49 µM
GI50 [5]: 6.38 µM
TGI [5]: 31.3 µM
GI50 [6]: 3.14 µM
TGI [6]: 12 µM
GI50 [7]: 1.72 µM
TGI [7]: 3.47 µM
GI50 [8]: 9.36 µM
TGI [8]: 33.9 µM
GI50 [9]: 1.58 µM
TGI [9]: 3.42 µM
GI50 [10]: 5.61 µM
TGI [10]: > 100 µM

CC1=C(C)CC2(CCCCC2=O)S(=O)C1 (configuration not stated)
TGI [1]: > 100 µM
TGI [2]: > 100 µM
TGI [3]: > 100 µM
TGI [4]: > 100 µM
TGI [5]: > 100 µM
TGI [6]: > 100 µM
TGI [7]: > 100 µM
TGI [8]: > 100 µM
TGI [9]: > 100 µM
TGI [10]: > 100 µM

CCN(CC)CCCC(C)Nc1c(C)cnc2cc(Cl)c(C)cc12 (configuration not stated)
GI50 [1]: 3.96 µM
TGI [1]: > 38.6 µM
GI50 [2]: 12 µM
TGI [2]: > 100 µM
GI50 [3]: 6.83 µM
TGI [3]: 21.1 µM
GI50 [4]: 2.49 µM
TGI [4]: 8.99 µM
GI50 [5]: 5.56 µM
TGI [5]: 18 µM
GI50 [6]: 5.49 µM
TGI [6]: 31.5 µM
GI50 [7]: 16.6 µM
TGI [7]: 31.4 µM
GI50 [8]: 15 µM
TGI [8]: 38.7 µM
GI50 [9]: 11.7 µM
TGI [9]: > 68 µM
GI50 [10]: 11.4 µM
TGI [10]: 43.5 µM
